Laboratory results as given in patent publication US20260125370A1, “SULFOXIMINE COMPOUNDS AS HISTONE DEACETYLASE 6 INHIBITOR, AND PHARMACEUTICAL COMPOSITION COMPRISING THE SAME” (CHONG KUN DANG PHARMACEUTICAL CORP., priority 2022, published 2026).

Experiments:
[1] = target: T1, human recombinant HDAC6 (Homo sapiens, UniProt Q9UBN7); test: HDAC6 enzyme activity inhibition (fluorimetric, in vitro); format: biochemical; conditions: samples at 0.1, 1, 10, 100 and 1000 nM
T1 construct: purchased Calbiochem 382180
T1 sequence (Q9UBN7 1-1215): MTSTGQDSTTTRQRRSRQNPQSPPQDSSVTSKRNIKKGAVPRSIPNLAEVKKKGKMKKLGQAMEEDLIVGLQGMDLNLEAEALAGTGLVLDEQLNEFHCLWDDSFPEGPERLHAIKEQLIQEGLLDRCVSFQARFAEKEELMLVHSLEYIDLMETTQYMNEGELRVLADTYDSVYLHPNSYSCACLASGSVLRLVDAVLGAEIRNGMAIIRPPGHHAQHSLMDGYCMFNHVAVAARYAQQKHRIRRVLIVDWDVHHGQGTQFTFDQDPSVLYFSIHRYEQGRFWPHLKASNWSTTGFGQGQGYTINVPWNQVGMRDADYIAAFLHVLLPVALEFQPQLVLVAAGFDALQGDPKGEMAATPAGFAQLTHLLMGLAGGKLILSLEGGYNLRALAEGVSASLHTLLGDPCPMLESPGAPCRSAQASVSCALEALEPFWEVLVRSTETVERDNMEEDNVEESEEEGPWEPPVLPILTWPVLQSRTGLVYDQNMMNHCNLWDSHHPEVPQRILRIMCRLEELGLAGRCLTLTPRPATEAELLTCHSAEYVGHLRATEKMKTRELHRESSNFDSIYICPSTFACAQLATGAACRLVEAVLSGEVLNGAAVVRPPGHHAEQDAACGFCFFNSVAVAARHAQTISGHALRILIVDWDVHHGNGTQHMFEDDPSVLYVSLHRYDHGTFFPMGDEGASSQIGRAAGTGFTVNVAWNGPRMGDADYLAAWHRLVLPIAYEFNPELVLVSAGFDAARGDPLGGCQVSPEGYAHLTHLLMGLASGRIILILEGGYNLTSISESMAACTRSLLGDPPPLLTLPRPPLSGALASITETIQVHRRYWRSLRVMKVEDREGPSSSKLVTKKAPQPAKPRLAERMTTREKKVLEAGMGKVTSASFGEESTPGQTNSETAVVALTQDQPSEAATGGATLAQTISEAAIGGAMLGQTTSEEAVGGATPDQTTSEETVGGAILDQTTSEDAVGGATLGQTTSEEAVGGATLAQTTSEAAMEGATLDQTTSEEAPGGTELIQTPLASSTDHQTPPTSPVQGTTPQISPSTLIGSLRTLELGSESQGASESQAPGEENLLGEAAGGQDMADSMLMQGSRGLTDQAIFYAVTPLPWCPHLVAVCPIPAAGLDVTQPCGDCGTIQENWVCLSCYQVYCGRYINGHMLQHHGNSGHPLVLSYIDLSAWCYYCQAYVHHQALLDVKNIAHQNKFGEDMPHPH
Description: (§1) A HDAC enzyme inhibitory capacity of a test material was measured by using HDAC1 Fluorimetric Drug Discovery Assay Kit (Enzolifesciences: BML-AK511) and HDAC6 human recombinant (Calbiochem: 382180). For a HDAC1 assay, samples were treated at a concentration of 100, 1000 and 10000 nM. For a HDAC6 assay, samples were treated at a concentration of 0.1, 1, 10, 100 and 1000 nM.
(§2) For the test on the HDAC1 enzyme activity, human recombinant HDAC1 (BML-SE456) was used as a zymogen and Fluor de Lys®-SIRT1 (BNL-KI177) was used as a substrate. A 5-fold dilution of the compound was divided into a 96-well plate, after which 0.3 μg of the enzyme and […] of the substrate were inserted into each well and subjected to reaction at 37° C. for 60 minutes, such that Fluor de Lys® Developer II (BML-K1176) was inserted thereinto and subjected to reaction for 30 minutes and finished. After that, a fluorescence value (Ex 360, Em 460) was measured with a multi-plate reader (FlexStation 3, Molecular Device). An experiment on HDAC6 enzyme was conducted in accordance with the same protocol as in the HDAC1 enzyme activity test method by using human recombinant HDAC6 (382180) of Calbiochem Inc. For final result values, each IC50 value was calculated with GraphPad Prism 4.0 program.

[2] = target: T2, human recombinant HDAC1 (Homo sapiens, UniProt Q13547); test: HDAC1 enzyme activity inhibition (HDAC1 Fluorimetric Drug Discovery Assay Kit, in vitro); format: biochemical; conditions: samples at 100, 1000 and 10000 nM
T2 construct: purchased Enzolifesciences BML-SE456
Description: as §1, §2

T2 sequence (Q13547 whole entry): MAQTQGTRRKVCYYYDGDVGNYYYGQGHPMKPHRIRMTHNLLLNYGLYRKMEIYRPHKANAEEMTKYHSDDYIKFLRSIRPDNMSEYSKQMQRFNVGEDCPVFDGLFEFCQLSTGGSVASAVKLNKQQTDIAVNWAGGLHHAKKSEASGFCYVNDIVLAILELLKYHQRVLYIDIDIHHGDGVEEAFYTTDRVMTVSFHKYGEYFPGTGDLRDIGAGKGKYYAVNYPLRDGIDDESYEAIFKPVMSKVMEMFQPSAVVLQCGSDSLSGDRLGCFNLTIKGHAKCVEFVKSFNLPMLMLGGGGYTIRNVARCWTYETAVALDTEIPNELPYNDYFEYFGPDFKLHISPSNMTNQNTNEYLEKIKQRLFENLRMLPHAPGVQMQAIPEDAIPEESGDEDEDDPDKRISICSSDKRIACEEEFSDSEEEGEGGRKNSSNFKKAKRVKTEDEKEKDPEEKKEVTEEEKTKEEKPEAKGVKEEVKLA

SMILES	IC50 [1]	IC50 [2]
CC(=O)N=S1(=O)CCN(C(=O)N(Cc2ccc(-c3nnc(C(F)F)o3)cc2F)c2ccccc2)CC1 [Compound 40, 1-(acetylimino)-N-(4-(5-(difluoromethyl)-1,3,4-oxadiazol-2-yl)-2-fluorobenzyl)-N-phenylthiomorpholin-4-carboxamide 1-oxide]	84.8 nM	> 10 µM
N=S1(=O)CCN(C(=O)N(Cc2ccc(-c3nnc(C(F)F)o3)cn2)c2cc(F)ccc2F)CC1 [Compound 45, N-((5-(5-(difluoromethyl)-1,3,4-oxadiazol-2-yl)pyridin-2-yl)methyl)-N-(2,5-difluorophenyl)-1-iminothiomorpholin-4-carboxamide 1-oxide]	63.6 nM	> 10 µM
N=S1(=O)CCN(C(=O)N(Cc2ncc(-c3nnc(C(F)F)o3)cc2F)c2cc(F)ccc2F)CC1 [Compound 46, N-((5-(5-(difluoromethyl)-1,3,4-oxadiazol-2-yl)-3-fluoropyridin-2-yl)methyl)-N-(2,5-difluorophenyl)-1-iminothiomorpholin-4-carboxamide 1-oxide]	65.9 nM	> 10 µM
N=S1(=O)CCC(N2C[C@@H]3C[C@H]2CN3C(=O)N(Cc2ccc(-c3nnc(C(F)F)o3)cn2)c2ccccc2F)CC1 (stereo partly drawn) [Compound 48, (1S,4S)—N-((5-(5-(difluoromethyl)-1,3,4-oxadiazol-2-yl)pyridin-2-yl)methyl)-N-(2-fluorophenyl)-5-(1-imino-1-oxidotetrahydro-2H-thiopyran-4-yl)-2,5-diazabicyclo[2.2.1]heptan-2-carboxamide]	113 nM	> 10 µM
N=S1(=O)CCN(C(=O)N(Cc2ccc(-c3nnc(C(F)F)o3)cn2)c2ccc(Cl)cc2Cl)CC1 [Compound 49, N-(2,4-dichlorophenyl)-N-((5-(5-(difluoromethyl)-1,3,4-oxadiazol-2-yl)pyridin-2-yl)methyl)-1-iminothiomorpholin-4-carboxamide 1-oxide]	77.7 nM	> 10 µM
N=S1(=O)CCN(C(=O)N(Cc2ncc(-c3nnc(C(F)F)o3)cc2F)c2ccc(Cl)cc2Cl)CC1 [Compound 50, N-(2,4-dichlorophenyl)-N-((5-(5-(difluoromethyl)-1,3,4-oxadiazol-2-y1)-3-fluoropyridin-2-yl)methyl)-1-iminothiomorpholin-4-carboxamide 1-oxide]	66.4 nM	> 10 µM
CC(=O)N=S1(=O)CCN(C(=O)N(Cc2ccc(-c3nnc(C(F)F)o3)cn2)c2ccccc2)CC1 [Compound 52, 1-(acetylimino)-N-((5-(5-(difluoromethyl)-1,3,4-oxadiazol-2-yl)pyridin-2-yl)methyl)-N-phenylthiomorpholin-4-carboxamide 1-oxide]	46.9 nM	> 10 µM
CS(=O)(=O)N=S1(=O)CCN(C(=O)N(Cc2ccc(-c3nnc(C(F)F)o3)cn2)c2ccccc2)CC1 [Compound 53, N-((5-(5-(difluoromethyl)-1,3,4-oxadiazol-2-yl)pyridin-2-yl)methyl)-1-((methylsulfonyl)imino)-N-phenylthiomorpholin-4-carboxamide 1-oxide]	40.6 nM	> 10 µM
N=S1(=O)CCN(C(=O)N(Cc2c(F)cc(-c3nnc(C(F)F)o3)cc2F)c2ccccc2F)CC1 [Compound 54, N-(4-(5-(difluoromethyl)-1,3,4-oxadiazol-2-y1)-2,6-difluorobenzyl)-N-(2-fluorophenyl)-1-iminothiomorpholin-4-carboxamide 1-oxide]	200 nM	> 10 µM
N=S1(=O)CCN(C(=O)N(Cc2ncc(-c3nnc(C(F)F)o3)cc2F)c2ccccc2F)CC1 [Compound 55]	140 nM	> 10 µM
N=S1(=O)CCN(C(=O)N(Cc2ccc(-c3nnc(C(F)F)o3)cn2)c2ccccc2F)CC1 [Compound 57]	130 nM	> 10 µM
O=C(NC1CCS(=O)(=NC(=O)C(F)(F)F)CC1)N(Cc1ccc(-c2nnc(C(F)F)o2)cc1F)c1ccccc1 (stereo not shown) [Compound 58, N-(4-(3-(4-(5-(difluoromethyl)-1,3,4-oxadiazol-2-yl)-2-fluorobenzyl)-3-phenylureido)-1-oxidotetrahydro-2H-thiopyran-1-yliden)-2,2,2-trifluoroacetamide]	256 nM	> 10 µM

Now from value to compound:

IC50 [1]	IC50 [2]	SMILES
80.8 nM	> 10 µM	CN=S1(=O)CCN(C(=O)N(Cc2ccc(-c3nnc(C(F)F)o3)cc2F)c2ccccc2)CC1 [Compound 39, N-(4-(5-(difluoromethyl)-1,3,4-oxadiazol-2-yl)-2-fluorobenzyl)-1-(methylimino)-N-phenylthiomorpholin-4-carboxamide 1-oxide]
28.9 nM	> 10 µM	N=S1(=O)CCN(C(=O)N(Cc2ccc(-c3nnc(C(F)F)o3)cc2F)c2cccc(Br)c2)CC1 [Compound 41, N-(3-bromophenyl)-N-(4-(5-(difluoromethyl)-1,3,4-oxadiazol-2-yl)-2-fluorobenzyl)-1-iminothiomorpholin-4-carboxamide 1-oxide]
37.7 nM	> 10 µM	N=S1(=O)CCN(C(=O)N(Cc2ccc(-c3nnc(C(F)F)o3)cc2F)c2ccc(Cl)c(Cl)c2)CC1 [Compound 42, N-(3,4-dichlorophenyl)-N-(4-(5-(difluoromethyl)-1,3,4-oxadiazol-2-yl)-2-fluorobenzyl)-1-iminothiomorpholin-4-carboxamide 1-oxide]
88.9 nM	> 10 µM	N=S1(=O)CCN(C(=O)N(Cc2ccc(-c3nnc(C(F)F)o3)cc2F)c2cccc(-c3cncs3)c2)CC1 [Compound 43, N-(4-(5-(difluoromethyl)-1,3,4-oxadiazol-2-yl)-2-fluorobenzyl)-1-imino-N-(3-(thiazole-5-yl)phenyl)thiomorpholin-4-carboxamide 1-oxide]
130 nM	> 10 µM	N=S1(=O)CCN(C(=O)N(Cc2ccc(-c3nnc(C(F)F)o3)cc2F)c2cccc(-c3ccco3)c2)CC1 [Compound 44, N-(4-(5-(difluoromethyl)-1,3,4-oxadiazol-2-yl)-2-fluorobenzyl)-N-(3-(furan-2-yl)phenyl)-1-iminothiomorpholin-4-carboxamide 1-oxide]
185 nM	> 10 µM	N=S1(=O)CCN(C(=O)N(Cc2ccc(-c3nnc(C(F)F)o3)cc2F)c2cccc(-c3cccnc3)c2)CC1 [Compound 47, N-(4-(5-(difluoromethyl)-1,3,4-oxadiazol-2-yl)-2-fluorobenzyl)-1-imino-N-(3-(pyridin-3-yl)phenyl)thiomorpholin-4-carboxamide 1-oxide]
69.9 nM	> 10 µM	N=S1(=O)CCN(C(=O)N(Cc2ccc(-c3nnc(C(F)F)o3)cc2F)c2ccc(Cl)cc2Cl)CC1 [Compound 51, N-(2,4-dichlorophenyl)-N-(4-(5-(difluoromethyl)-1,3,4-oxadiazol-2-y1)-2-fluorobenzyl)-1-iminothiomorpholin-4-carboxamide 1-oxide]
72.6 nM	> 10 µM	N=S1(=O)CCN(C(=O)N(Cc2ccc(-c3nnc(C(F)F)o3)cc2F)c2ccccc2F)CC1 [Compound 56, N-(4-(5-(difluoromethyl)-1,3,4-oxadiazol-2-yl)-2-fluorobenzyl)-N-(2-fluorophenyl)-1-iminothiomorpholin-4-carboxamide 1-oxide]
